Measurements published in the supplement of paper PMC10307832.

Columns and labels:
Experiment in all cases: relative viability (nuclei count vs DMSO), 5 days (fraction); higher = more cells survive
Everolimus = compound: CO[C@H]1C[C@@H]2CC[C@@H](C)[C@@](O)(O2)C(=O)C(=O)N2CCCC[C@H]2C(=O)O[C@H]([C@H](C)C[C@@H]2CC[C@@H](OCCO)[C@H](OC)C2)CC(=O)[C@H](C)/C=C(\C)[C@@H](O)[C@@H](OC)C(=O)[C@H](C)C[C@H](C)/C=C/C=C/C=C/1C [Everolimus]
Outline: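 Vehicle-anchored 1536-well plates of lung cancer cell lines, held overnight at 37 °C, were pinned with five library-drug doses (not always all listed) spaced by √10. No medium change followed over the next 5 days, after which the cells were fixed, permeabilised and Hoechst-stained together and imaged at 4×. Nuclei were counted with MetaXpress, and viability is treated-well nuclei over vehicle-well nuclei, taken as a median across plates. Plates passed with control CV below 25% and at least one doubling.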

Everolimus + Trametinib = compound: CO[C@H]1C[C@@H]2CC[C@@H](C)[C@@](O)(O2)C(=O)C(=O)N2CCCC[C@H]2C(=O)O[C@H]([C@H](C)C[C@@H]2CC[C@@H](OCCO)[C@H](OC)C2)CC(=O)[C@H](C)/C=C(\C)[C@@H](O)[C@@H](OC)C(=O)[C@H](C)C[C@H](C)/C=C/C=C/C=C/1C [Everolimus] + CC(=O)Nc1cccc(-n2c(=O)n(C3CC3)c(=O)c3c(Nc4ccc(I)cc4F)n(C)c(=O)c(C)c32)c1 [Trametinib] (partner 0.02 µM)
Outline: (§1)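 Five library-drug doses in √10 steps were combined with a fixed anchor-drug dose, or a single drug was given alone, by pin tool to lung cancer cell lines in 1536-well plates the day after seeding. Nuclei were stained and counted after 5 days. Relative viability is the nuclei count in treated wells over that in vehicle wells, taken as the median of duplicate plates.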

Everolimus + Phenformin = compound: CO[C@H]1C[C@@H]2CC[C@@H](C)[C@@](O)(O2)C(=O)C(=O)N2CCCC[C@H]2C(=O)O[C@H]([C@H](C)C[C@@H]2CC[C@@H](OCCO)[C@H](OC)C2)CC(=O)[C@H](C)/C=C(\C)[C@@H](O)[C@@H](OC)C(=O)[C@H](C)C[C@H](C)/C=C/C=C/C=C/1C [Everolimus] + N=C(N)NC(=N)NCCc1ccccc1 [Phenformin] (partner 250 µM)
Outline: as §1

Everolimus + Olaparib = compound: CO[C@H]1C[C@@H]2CC[C@@H](C)[C@@](O)(O2)C(=O)C(=O)N2CCCC[C@H]2C(=O)O[C@H]([C@H](C)C[C@@H]2CC[C@@H](OCCO)[C@H](OC)C2)CC(=O)[C@H](C)/C=C(\C)[C@@H](O)[C@@H](OC)C(=O)[C@H](C)C[C@H](C)/C=C/C=C/C=C/1C [Everolimus] + O=C(c1cc(Cc2n[nH]c(=O)c3ccccc23)ccc1F)N1CCN(C(=O)C2CC2)CC1 [Olaparib] (partner 8 µM)
Outline: as §1

Row | Cell Line | relative viability (Everolimus; 0.01 µM) | relative viability (Everolimus; 0.03162 µM) | relative viability (Everolimus; 0.1 µM) | relative viability (Everolimus; 0.3162 µM) | relative viability (Everolimus; 1 µM) | relative viability (Everolimus + Trametinib; first compound 0.01 µM) | relative viability (Everolimus + Trametinib; first compound 0.03162 µM) | relative viability (Everolimus + Trametinib; first compound 0.1 µM) | relative viability (Everolimus + Trametinib; first compound 0.3162 µM) | relative viability (Everolimus + Trametinib; first compound 1 µM) | relative viability (Everolimus + Phenformin; first compound 0.01 µM) | relative viability (Everolimus + Phenformin; first compound 0.03162 µM) | relative viability (Everolimus + Phenformin; first compound 0.1 µM) | relative viability (Everolimus + Phenformin; first compound 0.3162 µM) | relative viability (Everolimus + Phenformin; first compound 1 µM) | relative viability (Everolimus + Olaparib; first compound 0.01 µM) | relative viability (Everolimus + Olaparib; first compound 0.03162 µM) | relative viability (Everolimus + Olaparib; first compound 0.1 µM) | relative viability (Everolimus + Olaparib; first compound 0.3162 µM) | relative viability (Everolimus + Olaparib; first compound 1 µM)
1 | NCI-H1650 | 0.761 | 0.879 | 0.828 | 0.85 | 0.868 | 0.48 | 0.489 | 0.437 | 0.481 | 0.58 | 0.36 | 0.372 | 0.46 | 0.392 | 0.417 | 0.893 | 0.934 | 0.791 | 0.834 | 0.849
2 | NCI-H3122 | 0.987 | 0.993 | 0.831 | 0.691 | 0.852 | 0.167 | 0.147 | 0.172 | 0.141 | 0.11 | 0.368 | 0.45 | 0.391 | 0.37 | 0.402 | 0.638 | 0.643 | 0.497 | 0.476 | 0.579
3 | PC-3 [JPC-3] | 1.01 | 1.04 | 0.991 | 0.891 | 0.936 | 0.601 | 0.582 | 0.531 |  | 0.681 | 0.454 | 0.461 | 0.408 | 0.461 | 0.463 | 1.07 | 1.21 | 1.1 |  | 1.05
4 | NCI-H1651 | 0.749 | 0.71 | 0.691 | 0.663 | 0.645 | 0.774 | 0.657 | 0.605 | 0.592 | 0.538 | 0.284 | 0.297 | 0.255 | 0.265 | 0.4 | 0.185 | 0.201 | 0.254 | 0.229 | 0.211
5 | NCI-H2087 | 0.814 | 0.903 | 0.759 | 0.772 | 0.966 | 0.158 | 0.137 | 0.185 | 0.161 | 0.143 | 0.41 | 0.317 | 0.423 | 0.351 | 0.41 | 0.491 | 0.444 | 0.524 | 0.465 | 0.508
